Starred links: 1 amine or outer side, 2 acyl side, 3 side chain; linkers in the order of their positions; H or OH if unused. Non-standard residues stand in square brackets, D forms with d. Residues, ends and D or L forms follow the SMILES beside them. *: point of attachment. NHCH2CHPh2 = c1ccc(C(CN*)c2ccccc2)cc1; pNA = O=[N+]([O-])c1ccc(N*)cc1; NHPhenethyl = c1ccc(CCN*)cc1; Suc = O=C(CCC(=O)[*:2])[*:1]; Orn = NCCC[C@H](N)C(=O)O
biological target: Peptidyl-prolyl cis-trans isomerase A (cyclophilin A, hCyp-18) (Homo sapiens) (UniProt P62937); assay: 50% inhibitory concentration of competitive binding against hCyp-18 PPIase activity using uncoupled assay
Sequence (P62937 whole entry, looked up): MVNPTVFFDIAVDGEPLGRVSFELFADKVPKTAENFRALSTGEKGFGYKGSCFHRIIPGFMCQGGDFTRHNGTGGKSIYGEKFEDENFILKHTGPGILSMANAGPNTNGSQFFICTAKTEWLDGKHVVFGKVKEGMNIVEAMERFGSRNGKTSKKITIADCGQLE

Compared with CC[C@@H]1/C=C(\C)C[C@H](C)C[C@H](OC)[C@H]2O[C@@](O)(C(=O)C(=O)N3CCCC[C@H]3C(=O)O[C@H](/C(C)=C/[C@@H]3CC[C@@H](O)[C@H](OC)C3)[C@H](C)[C@@H](O)CC1=O)[C@H](C)C[C@@H]2OC, CC[C@H](C)[C@H](NC(=O)[C@@H]1CCCN1C(=O)CNC(=O)[C@H](C)NC(=O)[C@H](Cc1cnc[nH]1)NC(=O)[C@@H](NC(C)=O)C(C)C)C(=O)NCCc1ccccc1 (Ac-VHAGPI-NHPhenethyl) is 41-fold higher in IC50: 8 µM for the first, 325 µM for the second. The first is the more potent here.

Going from CC[C@H](C)[C@H](NC(=O)[C@@H]1CCCN1C(=O)CNC(=O)[C@H](C)NC(=O)[C@H](Cc1cnc[nH]1)NC(=O)[C@@H](NC(C)=O)C(C)C)C(=O)NCC(c1ccccc1)c1ccccc1 (Ac-VHAGPI-NHCH2CHPh2) to CC[C@H](C)[C@H](NC(=O)[C@@H]1CCCN1C(=O)CNC(=O)[C@H](C)NC(=O)[C@H](CCCN)NC(=O)[C@@H](NC(C)=O)C(C)C)C(=O)N[C@@H](C)C(N)=O [1-(2-{2-[2-(2-Acetylamino-3-methyl-butyrylamino)-5-amino-pentanoylamino]-propionylamino}-acetyl)-pyrrolidine-2-carboxylic acid [1-(1-carbamoyl-ethylcarbamoyl)-2-methyl-butyl]-amide] (Ac-V[Orn]AGPIA-NH2), the IC50 rises from 365 µM to over 10000 µM.

C[C@H](NC(=O)CCC(=O)O)C(=O)N[C@@H](C)C(=O)N1CCC[C@H]1C(=O)N[C@@H](Cc1ccccc1)C(=O)Nc1ccc([N+](=O)[O-])cc1 [N-[1-(1-Methyl-2-{2-[1-(4-nitro-phenylcarbamoyl)-2-phenyl-ethylcarbamoyl]-pyrrolidin-1-yl}-2-oxo-ethylcarbamoyl)-ethyl]-succinamic acid] (Suc-AAPF-pNA) was tested, and the IC50 was 850 µM.
